From ChEMBL document CHEMBL4020740, “Antitubulin effects of aminobenzothiophene-substituted triethylated chromones” (Bioorg Med Chem Lett, 2017)
The source made the active and inactive calls. The rule behind the calls is not given here.

Columns and labels:
KB = assay: Antiproliferative activity against human KB cells by sulforhodamine B assay
MDA-MB-231 = assay: Antiproliferative activity against human MDA-MB-231 cells by sulforhodamine B assay
[1] = Antiproliferative activity against human KBVIN cells by sulforhodamine B assay; format: functional, cell-based
MCF7 = assay: Antiproliferative activity against human MCF7 cells by sulforhodamine B assay
A549 = assay: Antiproliferative activity against human A549 cells by sulforhodamine B assay
Homo sapiens = species on record: Homo sapiens; assay: Inhibition of tubulin polymerization in interphase stage of human MDA-MB-231 cells at 0.2 uM after 24 hrs by DAPI staining based confocal microscopic analysis
[2] = Lipophilicity, log P of the compound; format: physicochemical; conditions: octanol/water

| Compound | IC50 (KB) [µM] | IC50 (MDA-MB-231) [µM] | IC50 [1] [µM] | IC50 (MCF7) [µM] | IC50 (A549) [µM] | inhibition (Homo sapiens) | logP [2] |
| --- | --- | --- | --- | --- | --- | --- | --- |
| CCC1=C(OC)C(CC)(CC)C(O)=C(C(=O)/C=C/c2csc3ccc(NC(=O)OC(C)(C)C)cc23)C1=O | 5.88 | 7.48 | 5.45 | 7.01 | 5.1 | – | – |
| CCC1=C(OC)C(CC)(CC)c2oc(-c3csc4cc(NC(=O)OC(C)(C)C)ccc34)cc(=O)c2C1=O | 5.13 | 6.52 | 5.02 | 6.01 | 5.62 | – | – |
| COc1ccc(/C=C\c2cc(OC)c(OC)c(OC)c2)cc1O | – | – | – | – | – | Active | – |
| CCC1=C(O)c2c(oc(-c3csc4cc(NC(=O)OC(C)(C)C)ccc34)cc2=O)C(CC)(CC)C1=O | > 40 | > 40 | > 40 | > 40 | > 40 | – | – |
| CC(=O)O[C@H]1C(=O)[C@@]2(C)[C@H]([C@H](OC(=O)c3ccccc3)[C@]3(O)C[C@H](OC(=O)[C@H](O)[C@@H](NC(=O)c4ccccc4)c4ccccc4)C(C)=C1C3(C)C)[C@]1(OC(C)=O)CO[C@@H]1C[C@@H]2O [PACLITAXEL] | – | – | 2.04 | – | – | – | – |
| CCC1=C(O)c2c(oc(-c3csc4cc(N)ccc34)cc2=O)C(CC)(CC)C1=O | – | – | – | – | – | – | 2.11 |
